# pIC50: −log10 of the molar value. The source made the active and inactive calls. The rule behind the calls is not given here.
# Key:
# RAW264.7 [1] = assay: Antiinflammatory activity in mouse RAW264.7 cells assessed as inhibition of LPS-stimulated TNF-alpha production at 6.0 uM preincubated for 2 hrs followed by LPS stimulaton measured after 22 hrs by ELISA relative to control; assay type: functional
# L02 = assay: Cytotoxicity against human LO2 cells assessed as reduction in cell viability incubated for 24 hrs by MTT assay; assay type: cell-based; details: L02, 24 h
# QGY-7703 = assay: Cytotoxicity against human QGY7703 cells assessed as reduction in cell viability incubated for 24 hrs by MTT assay; assay type: functional, cell-based; details: for pIC50: QGY-7703, 24 h
# HepG2 [2] = assay: Cytotoxicity against human HepG2 cells assessed as reduction in cell viability incubated for 24 hrs by MTT assay; assay type: functional, cell-based; details: for pIC50: HepG2, 24 h
# RAW264.7 [3] = assay: Cytotoxicity against mouse RAW264.7 cells assessed as reduction in cell viability at 6.0 uM incubated for 24 hrs by MTT assay; assay type: cell-based; details: raw264.7, 24 h
# [4] = Cytotoxicity against human HHL5 cells assessed as reduction in cell viability incubated for 24 hrs by MTT assay; assay type: cell-based; details: HHL-5, 24 h
# RAW264.7 [5] = assay: Antiinflammatory activity in mouse RAW264.7 cells assessed as inhibition of LPS-stimulated IL-6 production 6.0 uM preincubated for 2 hrs followed by LPS stimulaton measured after 22 hrs by ELISA relative to control; assay type: functional
# SMMC-7721 = assay: Cytotoxicity against human SMMC7721 cells assessed as reduction in cell viability incubated for 24 hrs by MTT assay; assay type: functional, cell-based; details: for pIC50: SMMC-7721, 24 h
# Mus musculus = assay: Antiinflammatory activity in human HepG2 cells xenografted Balb/c nude mouse assessed as reduction in TNFalpha protein expression at 10 mg/kg, ip administered every 2 days for 20 days and measured every 2 days by immunohistochemistry; assay type: functional, organism-based
# HepG2 [6] = assay: Induction of apoptosis in human HepG2 cells xenografted in Balb/c nude mouse assessed as reduction in Bcl-2 protein expression at 10 mg/kg, ip administered every 2 days for 20 days and measured every 2 days by immunohistochemistry; assay type: functional, organism-based
# HepG2 [7] = assay: Antitumor activity against human HepG2 cells xenografted in Balb/c nude mouse assessed as induction of incomplete cells at 10 mg/kg, ip administered every 2 days for 20 days and measured every 2 days by H and E staining based assay; assay type: functional, organism-based
# HepG2 [8] = assay: Antitumor activity against human HepG2 cells xenografted in Balb/c nude mouse assessed as induction of wrinkled abnormalities on cell morphology at 10 mg/kg, ip administered every 2 days for 20 days and measured every 2 days by H and E staining based assay; assay type: functional, organism-based
# HepG2 [9] = assay: Antitumor activity against human HepG2 cells xenografted in Balb/c nude mouse assessed as tumor volume level at 10 mg/kg, ip administered every 2 days for 20 days and measured every 2 days; assay type: functional
SMILES,inhibition (RAW264.7 [1]),pIC50 (L02),pIC50 (QGY-7703),pIC50 (HepG2 [2]),Activity (RAW264.7 [3]),pIC50 [4],inhibition (RAW264.7 [5]),pIC50 (SMMC-7721),inhibition at 6 µM (RAW264.7 [1]),inhibition (INH) (RAW264.7 [5]),Activity (Mus musculus),Activity (HepG2 [6]),Activity (QGY-7703),Activity (HepG2 [2]),Activity (HepG2 [7]),Activity (HepG2 [8]),Activity (SMMC-7721),Activity (HepG2 [9])
CN1C/C(=C\c2cccnc2)C(=O)/C(=C/c2cc([N+](=O)[O-])ccc2F)C1,Active,4.81,4.95,5.18,Non-Toxic,4.85,Active,5.21,–,–,–,–,–,–,–,–,–,–
O=C1/C(=C/c2ccncc2)CNC/C1=C\c1ccccc1C(F)(F)F,Active,4.87,5.31,5.21,Non-Toxic,5.01,Active,5.35,–,–,–,–,–,–,–,–,–,–
COc1cc(/C=C2\CN(C)C/C(=C\c3cccnc3)C2=O)cc(OC)c1OC,Active,4.84,5.37,5.02,Non-Toxic,4.95,Active,4.69,–,–,–,–,–,–,–,–,–,–
CN1C/C(=C\c2ccncc2)C(=O)/C(=C/c2ccccc2F)C1,Active,4.83,5.31,5.34,Non-Toxic,4.73,Active,5.15,–,–,–,–,–,–,–,–,–,–
CN1C/C(=C\c2cccnc2)C(=O)/C(=C/c2ccccc2F)C1,Active,4.80,5.35,5.32,Non-Toxic,4.87,Active,5.27,–,–,–,–,–,–,–,–,–,–
O=C1/C(=C/c2ccncc2)CN(S(=O)(=O)c2ccc(Br)cc2)C/C1=C\c1ccccc1F,inactive,4.71,4.94,5.03,Non-Toxic,< 4.70,inactive,4.90,–,–,–,–,–,–,–,–,–,–
O=C1/C(=C/c2cccnc2)CNC/C1=C\c1ccccc1F,inactive,4.80,5.05,4.68,Non-Toxic,4.84,inactive,< 4.70,–,–,–,–,–,–,–,–,–,–
CN1C/C(=C\c2cccnc2)C(=O)/C(=C/c2ccccc2C(F)(F)F)C1,–,4.85,5.54,5.59,Non-Toxic,4.95,–,5.41,< 30%,<30%,–,–,–,–,–,–,–,–
Cc1ccc(S(=O)(=O)N2C/C(=C\c3cccnc3)C(=O)/C(=C/c3ccccc3F)C2)cc1,Active,4.83,5.01,5.38,Non-Toxic,4.82,Active,4.99,–,–,–,–,–,–,–,–,–,–
COc1cccc2c1C(=O)c1c(O)c3c(c(O)c1C2=O)C[C@@](O)(C(=O)CO)C[C@@H]3O[C@H]1C[C@H](N)[C@H](O)[C@H](C)O1 [DOXORUBICIN],–,–,5.86,–,–,4.91,–,5.56,–,–,Active,Active,Dose-dependent effect,Dose-dependent effect,Active,Active,Dose-dependent effect,<200 mm3
O=C1/C(=C/c2cccnc2)CNC/C1=C\c1ccccc1C(F)(F)F,Active,4.95,5.42,5.30,Non-Toxic,4.98,Active,5.29,–,–,–,–,–,–,–,–,–,–
CC(=O)Nc1ccc(S(=O)(=O)N2C/C(=C\c3cccnc3)C(=O)/C(=C/c3ccccc3F)C2)cc1,Active,4.81,5.02,5.34,Non-Toxic,4.85,Active,4.96,–,–,–,–,–,–,–,–,–,–
COc1ccc(/C=C2\CN(C)C/C(=C\c3ccncc3)C2=O)c(OC)c1OC,Active,4.81,5.08,5.45,Non-Toxic,4.93,Active,5.04,–,–,–,–,–,–,–,–,–,–
N#Cc1ccc(S(=O)(=O)N2C/C(=C\c3ccncc3)C(=O)/C(=C/c3ccccc3F)C2)cc1,Active,< 4.70,5.07,5.35,Non-Toxic,4.80,Active,4.79,–,–,–,–,–,–,–,–,–,–
